We go through one compound from patent US8003676B2, “1,3,4-oxadiazole derivatives as DGAT1 inhibitors” (AstraZeneca AB, priority 2006, dated 2011).

In general, IC50 refers to the concentration that inhibits the measured activity by half.

One experiment relates to ACAT. The experiment can be described thus: ACAT enzyme assay (esterification of cholesterol); selectivity DGAT over ACAT. To be noted: DGAT vs ACAT enzyme assays. It counts as biochemical. The protocol:
• Mouse adipocyte 3T3 cells were cultured to confluency in 6 well plates in new born calf serum containing media. Differentiation of the cells was induced by incubating in medium containing 10% foetal calf serum, 1 μg/mL insulin, 0.25 μM dexamethasone and 0.5 mM isobutylmethyl xanthine. After 48 h the cells were maintained in medium containing 10% foetal calf serum and 1 μg/mL insulin for a further 4-6 days. For the experiment, the medium was changed to serum-free medium and the cells pre-incubated with compound solubilised in DMSO (final concentration 0.1%) for 30 minutes. De novo lipogenesis was measured by the addition of 0.25 mM sodium acetate plus 1 μCi/mL ^14C-sodium acetate to each well for a further 2 h (J. Biol. Chem., 1976, 251, 6462-6464). […] Incorporation of radiolabel into the triglyceride fraction was analysed using a Radiomatic Flo-one Detector (Packard) connected to the HPLC machine. […] De novo lipogenesis was measured by the addition of 50 μM sodium acetate plus 3 μCi/mL ^14C-sodium acetate to each well for a further 3 h (J. Biol. Chem., 1976, 251, 6462-6464). […] Incorporation of radiolabel into the triglyceride fraction was analysed using a Radiomatic Flo-one Detector (Packard) connected to the HPLC machine. • 3) The ability of compounds to inhibit ACAT can be measured using a modification of the enzyme assay described in Billheimer (1985) Methods in Enzymology, 111, 286-293. […]

The target in another experiment is T1, human DGAT1 (Homo sapiens, UniProt O75907).
T1 construct: made in house; host or cells: Sf9 insect cells (baculovirus), membrane fraction
T1 sequence (O75907 1-488): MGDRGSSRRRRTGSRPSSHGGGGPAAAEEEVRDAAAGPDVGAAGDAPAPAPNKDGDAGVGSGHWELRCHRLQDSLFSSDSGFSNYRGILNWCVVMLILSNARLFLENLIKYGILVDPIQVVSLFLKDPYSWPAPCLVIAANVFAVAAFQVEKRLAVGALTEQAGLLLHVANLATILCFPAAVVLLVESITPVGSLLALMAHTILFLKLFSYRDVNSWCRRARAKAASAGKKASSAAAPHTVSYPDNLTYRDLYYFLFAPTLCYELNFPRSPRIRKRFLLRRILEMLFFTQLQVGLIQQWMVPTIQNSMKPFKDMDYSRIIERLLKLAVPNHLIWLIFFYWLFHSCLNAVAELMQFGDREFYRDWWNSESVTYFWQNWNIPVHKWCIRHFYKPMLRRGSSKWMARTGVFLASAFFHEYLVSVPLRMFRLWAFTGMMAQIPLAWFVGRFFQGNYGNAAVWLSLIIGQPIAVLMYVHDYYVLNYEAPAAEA
The experiment can be described thus: Human Enzyme Assay (DGAT1 inhibition, 14C oleoyl CoA, triolein formation). Format: biochemical. To be noted: human DGAT1 expressed in sf9 insect cell membranes. As to the method: The in vitro assay to identify DGAT1 inhibitors uses human DGAT1 expressed in insect cell membranes as the enzyme source (Proc. Natl. Acad. Sci. 1998, 95, 13018-13023). Briefly, sf9 cells were infected with recombinant baculovirus containing human DGAT1 coding sequences and harvested after 48 h. Cells were lysed by sonication and membranes isolated by centrifuging at 28000 rpm for 1 h at 4° C. on a 41% sucrose gradient. The membrane fraction at the interphase was collected, washed, and stored in liquid nitrogen.
DGAT1 activity was assayed by a modification of the method described by Coleman (Methods in Enzymology 1992, 209, 98-102). Compound at 1-10 μM was incubated with 0.4 μg membrane protein, 5 mM MgCl2, and 100 μM1,2 dioleoyl-sn-glycerol in a total assay volume of 200 μl in plastic tubes. The reaction was started by adding ^14C oleoyl coenzyme A (30 μM final concentration) and incubated at room temperature for 30 minutes. The reaction was stopped by adding 1.5 mL 2-propanol:heptane:water (80:20:2). Radioactive triolein product was separated into the organic phase by adding 1 mL heptane and 0.5 mL 0.1 M carbonate buffer pH 9.5. DGAT1 activity was quantified by counting aliquots of the upper heptane layer by liquid scintillography.

For the compound `O=C(Nc1ccc(O[C@H]2CC[C@@H](C(=O)O)CC2)cc1F)c1nnc(Nc2cc(F)c(F)cc2F)o1` [Example 1, cis-4-(3-Fluoro-4-{[5-(2,4,5-trifluoro-phenylamino)-[1,3,4]oxadiazole-2-carbonyl]-amino}-phenoxy)-cyclohexanecarboxylic acid], in the experiment with ACAT, the “selectivity to inhibit DGAT over inhibition of ACAT (ratio of IC50 values in the DGAT and ACAT enzyme assays)” value worked out at 70 fold. Moreover, the concentration for half-maximal inhibition (IC50) at human DGAT1 was found to be 4 nM.
